Test results as given in ChEMBL document CHEMBL4602613, “Early identification of promiscuous attributes of aldose reductase inhibitors using a DMSO-perturbation assay” (Bioorg Med Chem Lett, 2020).

How the values were obtained:
[1] = biological target: T1, Aldo-keto reductase family 1 member B1 (Homo sapiens, UniProt P15121); assay: Inhibition of human recombinant AKR1B1 assessed as D,L-glyceraldehyde reduction at 100 uM incubated in sodium phosphate buffer at pH 6.2 in presence of NADPH relative to control
[2] = biological target: T1, Aldo-keto reductase family 1 member B1; assay: Inhibition of human recombinant AKR1B1 assessed as D,L-glyceraldehyde reduction incubated in sodium phosphate buffer at pH 6.2 in presence of NADPH
[3] = biological target: T1, Aldo-keto reductase family 1 member B1; assay: Aggregation-based inhibition of human recombinant AKR1B1 assessed as D,L-glyceraldehyde reduction incubated in sodium phosphate buffer at pH 6.2 in presence of NADPH and 0.05% Triton X-100 by detergent-addition assay
[4] = biological target: T1, Aldo-keto reductase family 1 member B1; assay: Inhibition of human recombinant AKR1B1 assessed as D,L-glyceraldehyde reduction pretreated with 0.3M DMSO followed by compound addition by DMSO-perturbation assay
[5] = biological target: T1, Aldo-keto reductase family 1 member B1; assay: Inhibition of human recombinant AKR1B1 assessed as D,L-glyceraldehyde reduction pretreated with 0.7M DMSO followed by compound addition by DMSO-perturbation assay
[6] = biological target: T1, Aldo-keto reductase family 1 member B1; assay: Ratio of IC50 for human recombinant AKR1B1 in presence of 0.7M DMSO to IC50 for human recombinant AKR1B1 in presence of 0.3M DMSO by DMSO-perturbation assay
[7] = biological target: T1, Aldo-keto reductase family 1 member B1; assay: Aggregation-based inhibition of human recombinant AKR1B1 assessed as D,L-glyceraldehyde reduction at 300 uM incubated in sodium phosphate buffer at pH 6.2 in presence of NADPH and 0.05% Triton X-100 by detergent-addition assay
[8] = biological target: T2, Aldo-keto reductase family 1 member B10 (Homo sapiens, UniProt O60218); assay: Inhibition of AKR1B10 (unknown origin) pretreated with 0.42M DMSO followed by compound treatment by DMSO-perturbation assay
[9] = biological target: T2, Aldo-keto reductase family 1 member B10; assay: Inhibition of AKR1B10 (unknown origin) pretreated with 0.25M DMSO followed by compound treatment by DMSO-perturbation assay

T2 sequence (O60218 whole entry): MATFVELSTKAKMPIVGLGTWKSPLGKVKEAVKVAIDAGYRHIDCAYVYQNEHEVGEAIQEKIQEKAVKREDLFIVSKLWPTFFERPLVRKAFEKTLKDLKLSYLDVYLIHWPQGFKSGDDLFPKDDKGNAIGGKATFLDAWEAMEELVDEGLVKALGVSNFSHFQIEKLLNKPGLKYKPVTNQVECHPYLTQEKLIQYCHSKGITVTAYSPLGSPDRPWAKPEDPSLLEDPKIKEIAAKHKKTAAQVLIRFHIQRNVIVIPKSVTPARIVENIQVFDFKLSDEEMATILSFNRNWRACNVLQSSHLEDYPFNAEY

| Structure (SMILES) | inhibition [1] [%] | IC50 ([2]; read-out: IC50) [µM] | IC50 [3] [µM] | further results |
| --- | --- | --- | --- | --- |
| O=C1NC(=O)C(c2ccccc2)N1 (stereo not given) | 34 |  |  |  |
| O=C1NC(=O)C2(CCCc3ccccc32)N1 (stereo not given) | 56 | 80.1 | 114 |  |
| O=C1NC(=O)C(c2ccccc2)(c2ccc(O)cc2)N1 (stereo not given) | 71 | 40.6 | 47.9 | IC50 [4]: 40.6 µM; IC50 [5]: 64.2 µM |
| CC(=O)CC[C@@H]1[C@H]2CC(=C(C)C)C(=O)C[C@@]12C | 3 |  |  |  |
| Cn1cnc2c1c(=O)n(CCCCC1(C)NC(=O)NC1=O)c(=O)n2C (stereo not given) | 56 | 65.6 | 71.9 | Ratio IC50 [6]: 2.7; IC50 [4]: 65.6 µM; IC50 [5]: 178 µM |
| CCCC1NC(=O)NC1=O (stereo not given) | 19 |  |  |  |
| CC(/C=C1\SC(=S)N(CC(=O)O)C1=O)=C\c1ccccc1 |  |  |  | IC50 [8]: 39.3 nM; IC50 [9]: 35.2 nM |
| CC(C)=C1C[C@@H]2[C@@H](CCC3(C)NC(=O)NC3=O)[C@]2(C)CC1=O (stereo not given in full) | 30 | 291 | 453 |  |

More lines, main results first:

| inhibition [1] [%] | IC50 ([2]; read-out: IC50) [µM] | IC50 [3] [µM] | Structure (SMILES) | further results |
| --- | --- | --- | --- | --- |
| 31 | 295 | 433 | COc1ccc(C2(C)NC(=O)NC2=O)c(O)c1 (stereo not given) |  |
| 2 |  |  | COc1ccc(C(C)=O)c(O)c1 |  |
| 12 |  |  | COc1ccc2c(c1)OC(=O)NC2(C)C(N)=O (stereo not given) |  |
| 4 |  |  | CCCCC[C@H](O)CC(=O)CCc1ccc(O)c(OC)c1 [GINGEROL] | IC50 [2]: Not Active |
| 39 | 160 | 319 | CC1(CCc2ccccc2)NC(=O)NC1=O (stereo not given) |  |
| 45 | 126 |  | CCCCCCCCC[C@H](O)CC(=O)CCc1ccc(O)c(OC)c1 | inhibition [7]: < 50% |
